Measured values as given in patent publication US11504396B2 (NKMAX Co., Ltd., priority 2016, dated 2022).
Like-named read-outs stand apart in the source and are kept apart here. The star is where a group is joined. Cbz = O=C(OCc1ccccc1)*; CH2F = FC*

Experiments:
[1] = tested on: NCI-H1299 (lung cancer) cells; test: Cytotoxicity of NK cells after caspase-8 inhibitor treatment (NCI-H1299); type: cell-based; details: NK cells treated with Z-IETD-FMK 2 μM for 24 hours, co-cultured 48 hours
Method: (§1) NK cells are treated with Z-IETD-FMK (2 μM), an inhibitory peptide against apoptosis-related activity of Caspase-8, for 24 hours and then co-cultured with NCI-H1299 (lung cancer) or PC-3 (prostate cancer) cells for 48 hours.

[2] = tested on: PC-3 (prostate cancer) cells; test: Cytotoxicity of NK cells after caspase-8 inhibitor treatment (PC-3); type: cell-based; details: NK cells treated with Z-IETD-FMK 2 μM for 24 hours, co-cultured 48 hours
Method: as §1

[3] = tested on: sGITRL-induced NK cell death; test: NK cell survival after sGITRL treatment (trypan blue); type: cell-based, human; details: then 5 ng/mL sGITRL for two days
[4] = tested on: Fas-L-induced NK cell death; test: NK cell survival after Fas-L treatment (trypan blue); type: cell-based, human; details: FIG. 1D; Z-IETD-FMK 2 μM pretreatment 24 hours, then 5 ng/mL Fas-L for two days
[5] = tested on: AGS (the stomach cancer cell line); details: FIG. 6A; pretreatment 24 hrs (30, 100 and 300 μM); E:T 0.5:1, 48 hrs
[6] = tested on: MDA-MB-231 (the breast cancer cell line); details: FIG. 6B; pretreatment 24 hrs (30, 100 and 300 μM); E:T 0.5:1, 48 hrs
human NK cells = details: cited from earlier work; for NK cytokine production / NK cytotoxicity: direct exposure of human NK cells with pharmacological doses, in vitro (Krieg and Ullrich 2013)
[7] = tested on: SNU-387 (the liver cancer cell line); test: 2 day cytotoxicity assay of kinase inhibitor pretreated NK cells against SNU-387
[8] = tested on: SNU-245 (the biliary tract cancer cell line); test: 2 day cytotoxicity assay against SNU-245 cells (pretreated or formulated NK cells, or ponatinib alone)
[9] = tested on: SK-4 (stomach cancer) cells; test: Cytotoxicity of NK cells after TGF-β receptor inhibitor treatment (SK-4); type: cell-based; details: NK cells treated with LY2157299 100 nM for 24 hours, co-cultured 48 hours
Method: (§2) NK cells are treated with LY2157299 (100 nM), a compound inhibiting kinases related to TGF-β receptor signaling, for 24 hours and then co-cultured with SK-4 (stomach cancer) or HCT-15 (colon cancer) cells for 48 hours.

[10] = tested on: HCT-15 (colon cancer) cells; test: Cytotoxicity of NK cells after TGF-β receptor inhibitor treatment (HCT-15); type: cell-based; details: NK cells treated with LY2157299 100 nM for 24 hours, co-cultured 48 hours
Method: as §2

[11] = tested on: TGF-β-induced NK cell death; test: NK cell survival after TGF-β treatment (trypan blue); type: cell-based, human; details: FIG. 1E; LY2157299 100 nM pretreatment 24 hours, then 1 ng/mL TGF-β for two days
[12] = resting and IL-2-activated NK cells (Krusch et al. 2009)
[13] = FIG. 7B, pretreatment 24 hrs, E:T 0.5:1, 48 hrs
[14] = FIG. 7A, pretreatment 24 hrs, E:T 0.5:1, 48 hrs

Cbz-IETD-CH2F
Cytotoxicity of NK Cells to NCI-H1299 Cells ([1]; E:T = 0.1:1, With IL-2): 33%
Cytotoxicity of NK Cells to NCI-H1299 Cells ([1]; E:T = 0.1:1, Without IL-2): 25%
Cytotoxicity of NK Cells to NCI-H1299 Cells ([1]; E:T = 0.5:1, With IL-2): 58%
Cytotoxicity of NK Cells to NCI-H1299 Cells ([1]; E:T = 0.5:1, Without IL-2): 34%
Cytotoxicity of NK Cells to PC-3 Cells ([2]; E:T = 0.1:1, W/ IL-2): 76%
Cytotoxicity of NK Cells to PC-3 Cells ([2]; E:T = 0.1:1, W/O IL-2): 48%
Cytotoxicity of NK Cells to PC-3 Cells ([2]; E:T = 0.5:1, W/ IL-2): 96%
Cytotoxicity of NK Cells to PC-3 Cells ([2]; E:T = 0.5:1, W/O IL-2): 78%
cell death induced by sGITRL (NK cell survival rate) ([3]; FIG. 1D, Z-IETD-FMK 2 μM pretreatment 24 hours): suppressed cell death
cell death induced by Fas-L (NK cell survival rate) [4]: suppressed cell death

CNC(=O)c1cc(Oc2ccc(NC(=O)Nc3ccc(Cl)c(C(F)(F)F)c3)cc2)ccn1 [sorafenib]
anti-cancer cytotoxicity of kinase inhibitor pretreated NK cells against AGS vs untreated NK cells [5]: did not show any differences
anti-cancer cytotoxicity of kinase inhibitor pretreated NK cells against MDA-MB-231 vs untreated NK cells [6]: did not show any differences
IFN-γ production of NK cells in response to tumor targets (human NK cells; [12]): concentration dependently inhibited
cytotoxicity of NK cells in response to tumor targets (human NK cells; [12]): concentration dependently inhibited
anti-cancer cytotoxicity of kinase inhibitor pretreated NK cells against SNU-387 vs untreated NK cells [7, 13]: did not increase
anti-cancer cytotoxicity of kinase inhibitor pretreated NK cells against SNU-245 vs untreated NK cells [8, 14]: did not increase

Cc1ccc(NC(=O)c2ccc(CN3CCN(C)CC3)cc2)cc1Nc1nccc(-c2cccnc2)n1 [imatinib]
anti-cancer cytotoxicity of kinase inhibitor pretreated NK cells against AGS vs untreated NK cells [5]: did not show any differences
anti-cancer cytotoxicity of kinase inhibitor pretreated NK cells against MDA-MB-231 vs untreated NK cells [6]: did not show any differences
NK cytokine production (human NK cells): no impact
NK cytotoxicity (human NK cells): no impact
anti-cancer cytotoxicity of kinase inhibitor pretreated NK cells against SNU-387 vs untreated NK cells [7, 13]: did not increase
anti-cancer cytotoxicity of kinase inhibitor pretreated NK cells against SNU-245 vs untreated NK cells [8, 14]: did not increase

Cc1nc(Nc2ncc(C(=O)Nc3c(C)cccc3Cl)s2)cc(N2CCN(CCO)CC2)n1 [dasatinib]
anti-cancer cytotoxicity of kinase inhibitor pretreated NK cells against AGS vs untreated NK cells [5]: did not show any differences
anti-cancer cytotoxicity of kinase inhibitor pretreated NK cells against MDA-MB-231 vs untreated NK cells [6]: did not show any differences
NK cytotoxicity (human NK cells): abrogated cytotoxicity
anti-cancer cytotoxicity of kinase inhibitor pretreated NK cells against SNU-387 vs untreated NK cells [7, 13]: did not increase
anti-cancer cytotoxicity of kinase inhibitor pretreated NK cells against SNU-245 vs untreated NK cells [8, 14]: slightly increased anticancer activity

COc1cc(Nc2c(C#N)cnc3cc(OCCCN4CCN(C)CC4)c(OC)cc23)c(Cl)cc1Cl [bosutinib]
anti-cancer cytotoxicity of kinase inhibitor pretreated NK cells against SNU-387 vs untreated NK cells [7, 13]: did not increase
anti-cancer cytotoxicity of kinase inhibitor pretreated NK cells against SNU-245 vs untreated NK cells [8, 14]: did not increase

CCN(CC)CCNC(=O)c1c(C)[nH]c(/C=C2\C(=O)Nc3ccc(F)cc32)c1C [sunitinib]
anti-cancer cytotoxicity of kinase inhibitor pretreated NK cells against AGS vs untreated NK cells [5]: did not show any differences
anti-cancer cytotoxicity of kinase inhibitor pretreated NK cells against MDA-MB-231 vs untreated NK cells [6]: did not show any differences
cytotoxicity of NK cells in response to tumor targets (human NK cells): concentration dependently inhibited
anti-cancer cytotoxicity of kinase inhibitor pretreated NK cells against SNU-387 vs untreated NK cells [7]: did not increase
anti-cancer cytotoxicity of kinase inhibitor pretreated NK cells against SNU-245 vs untreated NK cells [8]: did not increase

Cc1cn(-c2cc(NC(=O)c3ccc(C)c(Nc4nccc(-c5cccnc5)n4)c3)cc(C(F)(F)F)c2)cn1 [nilotinib]
anti-cancer cytotoxicity of kinase inhibitor pretreated NK cells against AGS vs untreated NK cells [5]: did not show any differences
anti-cancer cytotoxicity of kinase inhibitor pretreated NK cells against MDA-MB-231 vs untreated NK cells [6]: did not show any differences
NK cytokine production (human NK cells): negatively influenced
anti-cancer cytotoxicity of kinase inhibitor pretreated NK cells against SNU-387 vs untreated NK cells [7, 13]: did not increase
anti-cancer cytotoxicity of kinase inhibitor pretreated NK cells against SNU-245 vs untreated NK cells [8, 14]: did not increase

Cc1cccc(-c2nn3c(c2-c2ccnc4ccc(C(N)=O)cc24)CCC3)n1 [LY2157299]
Cytotoxicity of NK Cells to SK-4 Cells ([9]; E:T = 0.1:1, With IL-2): 39%
Cytotoxicity of NK Cells to SK-4 Cells ([9]; E:T = 0.1:1, Without IL-2): 27%
Cytotoxicity of NK Cells to SK-4 Cells ([9]; E:T = 05:1, With IL-2): 59%
Cytotoxicity of NK Cells to SK-4 Cells ([9]; E:T = 05:1, Without IL-2): 35%
Cytotoxicity of NK Cells to HCT-15 Cells ([10]; E:T = 0.1:1, W/ IL-2): 86%
Cytotoxicity of NK Cells to HCT-15 Cells ([10]; E:T = 0.1:1, W/O IL-2): 68%
Cytotoxicity of NK Cells to HCT-15 Cells ([10]; E:T = 05:1, W/ IL-2): 98%
Cytotoxicity of NK Cells to HCT-15 Cells ([10]; E:T = 05:1, W/O IL-2): 82%
cell death induced by sGITRL (NK cell survival rate) ([3]; FIG. 1E, LY2157299 100 nM pretreatment 24 hours): suppressed cell death
cell death induced by TGF-β (NK cell survival rate) [11]: suppressed cell death

COc1cc2c(Nc3ccc(Br)cc3F)ncnc2cc1OCC1CCN(C)CC1 [vandetanib]
anti-cancer cytotoxicity of kinase inhibitor pretreated NK cells against SNU-387 vs untreated NK cells [7, 13]: did not increase
anti-cancer cytotoxicity of kinase inhibitor pretreated NK cells against SNU-245 vs untreated NK cells [8, 14]: did not increase
